Experimental data reported in patent US12606520B2, “Calpain-2 inhibitor compounds and methods of treatment” (WESTERN UNIVERSITY OF HEALTH SCIENCES, priority 2020, dated 2026).

Key:
calpain-2 [1] = target: T1, calpain-2 (Mus musculus, UniProt O08529); assay: Calpain-2 activity after TBI in mice (i.p. dosing); type: in vivo; set-up: from tissue; host or cells: cerebellar P2 fractions / brain of wild-type mice after TBI
T1 sequence (O08529 1-700): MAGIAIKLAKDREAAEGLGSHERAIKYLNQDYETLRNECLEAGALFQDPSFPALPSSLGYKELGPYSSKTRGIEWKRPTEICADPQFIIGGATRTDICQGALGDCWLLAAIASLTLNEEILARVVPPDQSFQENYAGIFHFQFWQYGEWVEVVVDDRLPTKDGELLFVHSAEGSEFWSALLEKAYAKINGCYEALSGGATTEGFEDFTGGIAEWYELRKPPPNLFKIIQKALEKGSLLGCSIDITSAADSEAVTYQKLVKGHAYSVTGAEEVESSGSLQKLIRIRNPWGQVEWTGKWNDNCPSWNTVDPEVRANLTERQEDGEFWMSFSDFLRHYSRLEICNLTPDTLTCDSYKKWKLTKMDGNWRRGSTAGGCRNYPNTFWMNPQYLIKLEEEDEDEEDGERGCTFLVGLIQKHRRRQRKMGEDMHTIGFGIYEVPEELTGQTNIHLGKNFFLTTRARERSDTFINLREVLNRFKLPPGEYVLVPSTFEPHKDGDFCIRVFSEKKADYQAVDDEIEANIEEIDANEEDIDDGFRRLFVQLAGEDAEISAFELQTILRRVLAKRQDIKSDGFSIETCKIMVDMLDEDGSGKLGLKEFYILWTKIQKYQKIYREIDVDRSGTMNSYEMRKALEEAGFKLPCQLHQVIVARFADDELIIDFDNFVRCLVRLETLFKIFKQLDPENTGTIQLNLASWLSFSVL
T1 sequence (O88456 1-268 partner): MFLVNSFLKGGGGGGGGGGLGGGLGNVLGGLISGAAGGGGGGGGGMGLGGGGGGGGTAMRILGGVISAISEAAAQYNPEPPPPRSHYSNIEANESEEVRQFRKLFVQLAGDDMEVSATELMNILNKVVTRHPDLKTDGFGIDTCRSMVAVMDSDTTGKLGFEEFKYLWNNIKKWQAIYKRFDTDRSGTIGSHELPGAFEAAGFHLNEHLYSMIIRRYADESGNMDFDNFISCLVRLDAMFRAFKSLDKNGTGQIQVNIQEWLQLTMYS
Protocol: Calpain activity in cerebellar P2 fractions was measured 24 h after traumatic brain injury (TBI) in adult wild-type mice and the assay results for calpain-1 and calpain-2 are shown in FIG. 2. 0.1 or 1 mg/kg of NA112 was injected intraperitoneally 1 h after TBI. Each measurement of in vivo selectivity was obtained as follows: • Calpain-1 activity: Calpain activity with 20 μM Ca^2+. Normalized to Vehicle. • Calpain-2 activity: Calpain activity with 5 mM Ca^2+ minus Calpain activity with 20 μM Ca^2+. Results are means S.E.M. of 3 experiments.
Calpain activity in cerebellar P2 fractions was measured 24 h after TBI in adult WT mice, and vehicle or 0.1 or 1 mg/kg of NA112 (12) dissolved in DMSO or liposomal formulation (lipo) was injected intraperitoneally 1 h after TBI. […]
Vehicle (DMSO or liposomes) or 0.1 or 1 mg/kg of NA112 (12) dissolved in DMSO or liposomal formulation (lipo) was injected intraperitoneally 1 h after TBI in WT mice. Calpain activity was measured 24 h later in cerebellar P2 fractions. Calpain-1 activity was measured in the presence of 20 μM calcium and calpain-2 activity was measured as the difference between calpain activity measured in the presence of 5 mM calcium and that measured in the presence of 20 μM calcium (FIG. 11). In both cases, calpain activity was normalized to the values measured in vehicle-treated mice. […]

calpain-2 [2] = target: T1, calpain-2; assay: Calpain-2 activity in calpain-1 KO mouse cerebellar homogenate (2 mM Ca2+), Suc-Leu-Tyr-AMC cleavage; type: biochemical; set-up: Calpain-2 activity=calpain activity under 2000 uM Ca^2+ in calpain-1 KO mice; from tissue; host or cells: calpain-1 knock-out mouse cerebellar (P2) homogenate
Protocol: Cerebellar homogenates from wild-type (WT) or calpain-1 Knock-out (KO) mice were incubated with 20 μM calcium to activate calpain-1 or with 2 mM calcium to activate calpain-2, respectively, and increasing concentrations of NA112 (12). Calpain activity was measured by the cleavage of Succinyl-Leu-Tyr-7-amino-4-methylcoumarin (Suc-Leu-Tyr-AMC), resulting in increased fluorescence. Activity is normalized to the value measured in the presence of vehicle (DMSO).
WT or calpain-1 KO mouse cerebellar P2 homogenate (crude synaptosomal fraction) were used for measuring inhibitory activity of compounds against the mouse endogenous calpain-1/-2. Each reaction contains 100 ul of WT or calpain-1 KO mouse cerebellar P2 homogenate+0, 20 or 2000 uM Ca^2++0-10,000 nM NA184.
Calpain-2 activity=calpain activity under 2000 uM Ca^2+ in calpain-1 KO mice

| Compound | Calpain-2 inhibition in brain, male and female mice (calpain-2 [1]; 1 mg/kg i.p., 24 h after TBI) | Ratio (IC50 calpain-1/calpain-2) (calpain-2 [2]; mouse cerebellar P2 homogenate) | Calpain-2 inhibition, DMSO vs liposomes (calpain-2 [1]; 0.1 or 1 mg/kg i.p. 1 h after TBI, cerebellar P2 fractions 24 h after TBI) | IC50 (calpain-2 [2]; read-out: IC50, 2000 μM Ca^2+ (calpain-1 KO), calpain-1 KO mouse cerebellar homogenate, 2 mM calcium) [nM] |
| --- | --- | --- | --- | --- |
| CCC(NC(=O)[C@H](CC(C)C)NC(=O)NCc1ccccc1)C(=O)C(=O)NCc1cccc(Cl)c1OC (stereo partly drawn) [NA184, (2S)-2-(3-benzylureido)-N-(1-((3-chloro-2-methoxybenzyl)amino)-1,2-dioxopentan-3-yl)-4-methylpentanamide] | significantly inhibited calpain-2 | 21 |  |  |
| CCC(NC(=O)[C@H](CC(C)C)NC(=O)NCc1ccccc1)C(=O)C(=O)NCc1cc(OC)cc(OC)c1 (mixture of isomers) [NA112, (2S)-2-(3-benzylureido)-N-(1-((3,5-dimethoxybenzyl)amino)-1,2-dioxopentan-3-yl)-4-methylpentanamide] |  |  | same degree of calpain-2 inhibition | 106 |
